# Test results from patent US20070203206A1, “2-Pyrrolidone Derivatives And Use Thereof As Factor Xa Inhibitors” (priority 2003, published 2007).
# Counter-ions that a name gives are not always drawn. Like-named read-outs stand apart in the source and are kept apart here.
# Target: T1, human Factor Xa (Homo sapiens, UniProt P00742)
# T1 construct: containing human Factor Xa (final conc. Of 0.0003 U·ml-1)
# Test: In vitro fluorogenic assay for inhibition of Factor Xa
# Assay type: biochemical
# Protocol: In Vitro Assay for Inhibition of Factor Xa
# Compounds of the present invention were tested for their Factor Xa inhibitory activity as determined in vitro by their ability to inhibit human Factor Xa in a fluorogenic assay, using Rhodamine 110, bis-CBZ-glycylglycyl-L-arginine amide as the fluorogenic substrate. Compounds were diluted from a 10 mM stock solution in dimethylsulfoxide at appropriate concentrations. Assay was performed at room temperature using buffer consisting of: 50 mM Tris-HCl, 150 mM NaCl, 5 mM CaCl2, pH 7.4. containing human Factor Xa (final conc. Of 0.0003 U·ml-1). Compound and enzyme were preincubated for 15 min prior to addition of the substrate (final conc. of 10 μM). The reaction was stopped after 3 hrs with the addition of H-D-Phe-Pro-Arg-Chloromethylketone. […] To obtain IC50 values the data were analysed using ActivityBase® and XLfit®.
# Calculation of Ki values: Ki=IC50/(1+[Substrate]/Km)
# The Ki value for the above assay can be obtained by dividing the IC50 value by 1.6.
# [1] = human Factor Xa, Rhodamine 110 bis-CBZ-glycylglycyl-L-arginine amide substrate 10 μM, 15 min preincubation, room temperature, pH 7.4, Ki = IC50/1.6, read-out: Ki value
# T1 sequence (P00742 235-488 limits assumed): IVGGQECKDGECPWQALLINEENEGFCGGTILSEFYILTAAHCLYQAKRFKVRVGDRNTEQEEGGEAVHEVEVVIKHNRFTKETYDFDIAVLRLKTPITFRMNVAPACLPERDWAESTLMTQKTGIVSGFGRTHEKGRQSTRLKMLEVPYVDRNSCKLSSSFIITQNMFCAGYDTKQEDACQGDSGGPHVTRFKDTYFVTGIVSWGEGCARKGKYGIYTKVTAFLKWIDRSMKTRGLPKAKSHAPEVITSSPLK
# T1 sequence (P00742 41-179 partner limits assumed): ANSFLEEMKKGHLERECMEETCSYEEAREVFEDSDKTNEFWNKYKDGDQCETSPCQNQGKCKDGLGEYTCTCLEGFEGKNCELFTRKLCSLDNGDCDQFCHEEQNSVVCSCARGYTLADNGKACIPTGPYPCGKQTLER
Ki [1] [nM],SMILES,Ki (Ki value) [nM]
,"CNCCN(C)C(=O)c1ccc(N2CCC(NS(=O)(=O)/C=C(\C)c3ccc(Cl)s3)C2=O)c(F)c1 (centres unmarked) [Example 1, 4-[3-({[(1E)-2-(5-Chloro-2-thienyl)-1-propen-1-yl]sulfonyl}amino)-2-oxo-1-pyrrolidinyl]-3-fluoro-N-methyl-N-[2-(methylamino)ethyl]benzamide]",< 100
< 1000,"C/C(=C\S(=O)(=O)NC1CCN(c2ccc(C(=O)N(C)CCO)cc2F)C1=O)c1ccc(Cl)s1 (centres unmarked) [Example 2, 4-[3-({[(1E)-2-(5-Chloro-2-thienyl)-1-propen-1-yl]sulfonyl}amino)-2-oxo-1-pyrrolidinyl]-3-fluoro-N-(2-hydroxyethyl)-N-methylbenzamide]",
,"C/C(=C\S(=O)(=O)NC1CCN(c2ccc(C(=O)N(C)Cc3ccccn3)cc2F)C1=O)c1ccc(Cl)s1 (centres unmarked) [Example 3, 4-[3-({[(1E)-2-(5-Chloro-2-thienyl)-1-propen-1-yl]sulfonyl}amino)-2-oxo-1-pyrrolidinyl]-3-fluoro-N-methyl-N-(2-pyridinylmethyl)benzamide]",< 100
< 100,"C/C(=C\S(=O)(=O)NC1CCN(c2ccc(C(=O)N(C)CCS(C)(=O)=O)cc2F)C1=O)c1ccc(Cl)s1 (centres unmarked) [Example 4, 4-[3-({[(1E)-2-(5-Chloro-2-thienyl)-1-propen-1-yl]sulfonyl}amino)-2-oxo-1-pyrrolidinyl]-3-fluoro-N-methyl-N-[2-(methylsulfonyl)ethyl]benzamide]",
,"COCCN(C)C(=O)c1ccc(N2CCC(NS(=O)(=O)/C=C(\C)c3ccc(Cl)s3)C2=O)c(F)c1 (centres unmarked) [Example 5, 4-[3-({[(1E)-2-(5-Chloro-2-thienyl)-1-propen-1-yl]sulfonyl}amino)-2-oxo-1-pyrrolidinyl]-3-fluoro-N-methyl-N-[2-(methyloxy)ethyl]benzamide]",< 1000
< 1000,"O=C(NCc1ccncc1)c1ccc(N2CCC(NS(=O)(=O)/C=C/c3ccc(Cl)s3)C2=O)c(F)c1 (centres unmarked) [Example 8, 4-[3-({[(E)-2-(5-Chloro-2-thienyl)ethenyl]sulfonyl}amino)-2-oxo-1-pyrrolidinyl]-3-fluoro-N-(4-pyridinylmethyl)benzamide]",
< 1000,"O=C(NCc1cccnc1)c1ccc(N2CCC(NS(=O)(=O)/C=C/c3ccc(Cl)s3)C2=O)c(F)c1 (centres unmarked) [Example 9, 4-[3-({[(E)-2-(5-Chloro-2-thienyl)ethenyl]sulfonyl}amino)-2-oxo-1-pyrrolidinyl]-3-fluoro-N-(3-pyridinylmethyl)benzamide]",
< 1000,"CN(C)CCN(C)C(=O)c1ccc(N2CCC(NS(=O)(=O)c3cc4ccc(Cl)cc4s3)C2=O)c(F)c1 (centres unmarked) [Example 25, 4-(3-{[(6-Chloro-1-benzothien-2-yl)sulfonyl]amino}-2-oxo-1-pyrrolidinyl)-N-[2-(dimethylamino)ethyl]-3-fluoro-N-methylbenzamide formate]",
< 100,"CNCCN(C)C(=O)c1ccc(N2CCC(NS(=O)(=O)c3cc4ccc(Cl)cc4s3)C2=O)c(F)c1 (centres unmarked) [Example 26, 4-(3-{[(6-Chloro-1-benzothien-2-yl)sulfonyl]amino}-2-oxo-1-pyrrolidinyl)-3-fluoro-N-methyl-N-[2-(methylamino)ethyl]benzamide formate]",
< 100,"CN(CCc1cccnc1)C(=O)c1ccc(N2CCC(NS(=O)(=O)c3cc4ccc(Cl)cc4s3)C2=O)c(F)c1 (centres unmarked) [Example 27, 4-(3-{[(6-Chloro-1-benzothien-2-yl)sulfonyl]amino}-2-oxo-1-pyrrolidinyl)-3-fluoro-N-methyl-N-[2-(3-pyridinyl)ethyl]benzamide]",
< 1000,CN(CCN)C(=O)c1ccc(N2CCC(NS(=O)(=O)c3cc4ccc(Cl)cc4s3)C2=O)c(F)c1 (centres unmarked) [Example 28],
< 100,"C/C(=C\S(=O)(=O)NC1CCN(c2ccc(C(=O)N(C)CCN(C)C)cc2F)C1=O)c1ccc(Cl)s1 (centres unmarked) [Example 29, 4-[3-({[(1E)-2-(5-chloro-2-thienyl)-1-propen-1-yl]sulfonyl}amino)-2-oxo-1-pyrrolidinyl]-N-[2-(dimethylamino)ethyl]-3-fluoro-N-methylbenzamide formate]",
,"C/C(=C\S(=O)(=O)NC1CCN(c2ccc(C(=O)N(C)CCc3cccnc3)cc2F)C1=O)c1ccc(Cl)s1 (centres unmarked) [Example 30, 4-[3-({[(1E)-2-(5-Chloro-2-thienyl)-1-propen-1-yl]sulfonyl}amino)-2-oxo-1-pyrrolidinyl]-3-fluoro-N-methyl-N-[2-(3-pyridinyl)ethyl]benzamide]",< 100
,"C/C(=C\S(=O)(=O)NC1CCN(c2ccc(C(=O)N(C)CCc3c[nH]cn3)cc2F)C1=O)c1ccc(Cl)s1 (centres unmarked) [Example 31, 4-[3-({[(1E)-2-(5-Chloro-2-thienyl)-1-propen-1-yl]sulfonyl}amino)-2-oxo-1-pyrrolidinyl]-3-fluoro-N-[2-(1H-imidazol-4-yl)ethyl]-N-methylbenzamide]",< 100
